From patent US7138361B2, “Herbicidal heterocycles” (E. I. du Pont de Nemours and Company, priority 2000, dated 2006)

Legend:
Assay type in all cases: in vivo
[1] = test system: woolly cupgrass (Eriochloa villosa); assay: Test C preemergence; details: for Plant response rating (0 to 100), Cupgrass, Woolly: Rate 250 g/ha, visual evaluation after 12 to 14 days
Procedure, shortened: (§1)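 Herbicidal effect is a visual 0–100 score (100 = complete control) assigned versus untreated plants, 12 to 14 days after spraying in the greenhouse. Test compounds were applied in a non-phytotoxic, surfactant-containing solvent.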

[2] = test system: pigweed (Amaranthus retroflexus); assay: Test C preemergence; details: for Plant response rating (0 to 100), Pigweed: Rate 250 g/ha, visual evaluation after 12 to 14 days
Procedure, shortened: as §1

[3] = test system: crabgrass (Digitaria sanguinalis); assay: Test C preemergence; details: for Plant response rating (0 to 100), Crabgrass: Rate 250 g/ha, visual evaluation after 12 to 14 days
Procedure, shortened: as §1

kochia (Kochia scoparia) = assay: Test C preemergence; details: for Plant response rating (0 to 100), Kochia: Rate 250 g/ha, visual evaluation after 12 to 14 days
Procedure, shortened: as §1

[4] = test system: giant foxtail (Setaria faberii); assay: Test C preemergence; details: for Plant response rating (0 to 100), Foxtail, Giant: Rate 250 g/ha, visual evaluation after 12 to 14 days
Procedure, shortened: as §1

soybean (Glycine max) = assay: Test C preemergence; details: for Plant response rating (0 to 100), Soybean: Rate 250 g/ha, visual evaluation after 12 to 14 days
Procedure, shortened: as §1

[5] = test system: bermudagrass (Cynodon dactylon); assay: Test C preemergence; details: for Plant response rating (0 to 100 where 0 is no effect and 100 is complete control), Bermudagrass: Rate 250 g/ha, visual evaluation after 12 to 14 days
Procedure, shortened: as §1

[6] = test system: cocklebur (Xanthium strumarium); assay: Test C preemergence; details: for Plant response rating (0 to 100), Cocklebur: Rate 250 g/ha, visual evaluation after 12 to 14 days
Procedure, shortened: as §1

[7] = test system: Surinam grass (Brachiaria decumbens); assay: Test C preemergence; details: for Plant response rating (0 to 100), Surinam grass: Rate 250 g/ha, visual evaluation after 12 to 14 days
Procedure, shortened: as §1

Nightshade = assay: Test C preemergence; details: Rate 250 g/ha, visual evaluation after 12 to 14 days
Sunflower = assay: Test C preemergence; details: Rate 125 g/ha, scale 0 to 100, 0 no effect, 100 complete control
[8] = test system: pigweed (Amaranthus retroflexus); assay: Test B preemergence; details: Preemergence, Rate 500 g/ha; scale 0 to 100, 0 no effect, 100 complete control
Procedure, shortened: (§2)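 Visual injury scores, 0 = no effect to 100 = complete control, assigned against controls after 13 to 15 days in the greenhouse. Compounds formulated in non-phytotoxic solvent plus surfactant and applied to soil after planting (pre) or onto foliage of 1- to 4-leaf plants (post).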

[9] = test system: crabgrass (Digitaria sanguinalis); assay: Test B preemergence; details: scale 0 to 100, 0 no effect, 100 complete control
Procedure, shortened: as §2

[10] = test system: lambsquarters (Chenopodium album); assay: Test B preemergence; details: scale 0 to 100, 0 no effect, 100 complete control
Procedure, shortened: as §2

[11] = test system: morning glory (Ipomoea hederacea); assay: Test B preemergence; details: Preemergence, Rate 500 g/ha; scale 0 to 100, 0 no effect, 100 complete control
Procedure, shortened: as §2

[12] = test system: giant foxtail (Setaria faberii); assay: Test B preemergence; details: scale 0 to 100, 0 no effect, 100 complete control
Procedure, shortened: as §2

[13] = test system: velvetleaf (Abutilon theophrasti); assay: Test B preemergence; details: Preemergence, Rate 500 g/ha; scale 0 to 100, 0 no effect, 100 complete control
Procedure, shortened: as §2

rice (Oryza saliva) = assay: Test B preemergence; details: Preemergence, Rate 500 g/ha; scale 0 to 100, 0 no effect, 100 complete control
Procedure, shortened: as §2

[14] = test system: barnyardgrass (Echinochloa crus-galli); assay: Test B preemergence; details: scale 0 to 100, 0 no effect, 100 complete control
Procedure, shortened: as §2

corn (Zea mays) = assay: Test B preemergence; details: scale 0 to 100, 0 no effect, 100 complete control
Procedure, shortened: as §2

[15] = test system: cocklebur (Xanthium strumarium); assay: Test B preemergence; details: scale 0 to 100, 0 no effect, 100 complete control
Procedure, shortened: as §2

[16] = test system: Surinam grass (Brachiaria decumbens); assay: Test B preemergence; details: scale 0 to 100, 0 no effect, 100 complete control
Procedure, shortened: as §2

[17] = Preemergence, Rate 500 g/ha, scale 0 to 100
[18] = Rate 62 g/ha, scale 0 to 100, 0 no effect, 100 complete control
[19] = preemergence, Rate 125 g/ha, scale 0 to 100, 0 no effect, 100 complete control

## CC(C)c1ccn(C2SCN(c3cccc(OC(F)F)c3)C2=O)n1 (stereo not shown) [Compound 44]
[1]; [17]
  Plant response rating, Cupgrass, Woolly: 100
[1]; [18]
  Plant response rating, Cupgrass, Woolly: 30
[1]; preemergence
  Plant response rating (0 to 100), Cupgrass, Woolly: 100
[1]; [19]
  Plant response rating, Cupgrass, Woolly: 90
[2]; [17]
  Plant response rating, Pigweed: 100
[2]; [18]
  Plant response rating, Pigweed: 0
[2]; preemergence
  Plant response rating (0 to 100), Pigweed: 20
[2]; [19]
  Plant response rating, Pigweed: 0
[3]; [17]
  Plant response rating, Crabgrass: 100
[3]; [18]
  Plant response rating, Crabgrass: 100
[3]; preemergence
  Plant response rating (0 to 100), Crabgrass: 100
[3]; [19]
  Plant response rating, Crabgrass: 100
Kochia (Kochia scoparia); [17]
  Plant response rating, Kochia: 100
Kochia (Kochia scoparia); [18]
  Plant response rating, Kochia: 70
Kochia (Kochia scoparia); preemergence
  Plant response rating (0 to 100), Kochia: 100
Kochia (Kochia scoparia); [19]
  Plant response rating, Kochia: 100
[4]; [17]
  Plant response rating, Foxtail, Giant: 90
[4]; [18]
  Plant response rating, Foxtail, Giant: 0
[4]; preemergence
  Plant response rating (0 to 100), Foxtail, Giant: 100
[4]; [19]
  Plant response rating, Foxtail, Giant: 100
Soybean (Glycine max); [17]
  Plant response rating, Soybean: 30
Soybean (Glycine max); [18]
  Plant response rating, Soybean: 0
Soybean (Glycine max); preemergence
  Plant response rating (0 to 100), Soybean: 30
Soybean (Glycine max); [19]
  Plant response rating, Soybean: 0
[5]; [17]
  Plant response rating, Bermudagrass: 100
[5]; [18]
  Plant response rating, Bermudagrass: 90
[5]; preemergence
  Plant response rating (0 to 100 where 0 is no effect and 100 is complete control), Bermudagrass: 100
[5]; [19]
  Plant response rating, Bermudagrass: 100
[6]; [17]
  Plant response rating, Cocklebur: 100
[6]; preemergence
  Plant response rating (0 to 100), Cocklebur: 30
[6]; [19]
  Plant response rating, Cocklebur: 0
[7]; [17]
  Plant response rating, Surinam grass: 90
[7]; [18]
  Plant response rating, Surinam grass: 0
[7]; preemergence
  Plant response rating (0 to 100), Surinam grass: 80
[7]; [19]
  Plant response rating, Surinam grass: 80
Nightshade
  Plant response rating (0 to 100), Nightshade: 0
Sunflower
  Plant response rating, Sunflower: 0
[8]
  Plant response rating, Pigweed: 100
[9]; Preemergence, Rate 500 g/ha
  Plant response rating, Crabgrass: 100
[9]; preemergence, Rate 125 g/ha
  Plant response rating, Crabgrass: 0
[10]; Preemergence, Rate 500 g/ha
  Plant response rating, Lambsquarters: 100
[10]; preemergence, Rate 125 g/ha
  Plant response rating, Lambsquarters: 100
[11]
  Plant response rating, Morningglory: 0
[12]; Preemergence, Rate 500 g/ha
  Plant response rating, Foxtail, Giant: 100
[12]; preemergence, Rate 125 g/ha
  Plant response rating, Foxtail, Giant: 10
[13]
  Plant response rating, Velvetleaf: 0
Rice (Oryza saliva)
  Plant response rating, Rice: 100
[14]; Preemergence, Rate 500 g/ha
  Plant response rating, Barnyardgrass: 100
[14]; preemergence, Rate 125 g/ha
  Plant response rating, Barnyardgrass: 80
Corn (Zea mays); Preemergence, Rate 500 g/ha
  Plant response rating, Corn: 20
Corn (Zea mays); preemergence, Rate 125 g/ha
  Plant response rating, Corn: 0
[15]; preemergence, Rate 125 g/ha
  Plant response rating, Cocklebur: 0
[16]; Preemergence, Rate 500 g/ha
  Plant response rating, Surinam grass: 100
[16]; preemergence, Rate 125 g/ha
  Plant response rating, Surinam grass: 0

## O=C1C(n2ccc(C3CCC3)n2)SCN1c1cccc(OC(F)F)c1 (stereo not shown) [Compound 45]
[1]; [17]
  Plant response rating, Cupgrass, Woolly: 100
[1]; [18]
  Plant response rating, Cupgrass, Woolly: 0
[1]; preemergence
  Plant response rating (0 to 100), Cupgrass, Woolly: 70
[1]; [19]
  Plant response rating, Cupgrass, Woolly: 30
[2]; [17]
  Plant response rating, Pigweed: 30
[2]; [18]
  Plant response rating, Pigweed: 0
[2]; preemergence
  Plant response rating (0 to 100), Pigweed: 0
[2]; [19]
  Plant response rating, Pigweed: 0
[3]; [17]
  Plant response rating, Crabgrass: 100
[3]; [18]
  Plant response rating, Crabgrass: 90
[3]; preemergence
  Plant response rating (0 to 100), Crabgrass: 100
[3]; [19]
  Plant response rating, Crabgrass: 100
Kochia (Kochia scoparia); [17]
  Plant response rating, Kochia: 100
Kochia (Kochia scoparia); [18]
  Plant response rating, Kochia: 20
Kochia (Kochia scoparia); preemergence
  Plant response rating (0 to 100), Kochia: 90
Kochia (Kochia scoparia); [19]
  Plant response rating, Kochia: 60
[4]; [17]
  Plant response rating, Foxtail, Giant: 90
[4]; [18]
  Plant response rating, Foxtail, Giant: 30
[4]; preemergence
  Plant response rating (0 to 100), Foxtail, Giant: 40
[4]; [19]
  Plant response rating, Foxtail, Giant: 40
Soybean (Glycine max); [17]
  Plant response rating, Soybean: 0
Soybean (Glycine max); [18]
  Plant response rating, Soybean: 0
Soybean (Glycine max); preemergence
  Plant response rating (0 to 100), Soybean: 0
Soybean (Glycine max); [19]
  Plant response rating, Soybean: 0
[5]; [17]
  Plant response rating, Bermudagrass: 100
[5]; [18]
  Plant response rating, Bermudagrass: 50
[5]; preemergence
  Plant response rating (0 to 100 where 0 is no effect and 100 is complete control), Bermudagrass: 100
[5]; [19]
  Plant response rating, Bermudagrass: 90
[6]; [17]
  Plant response rating, Cocklebur: 90
[6]; preemergence
  Plant response rating (0 to 100), Cocklebur: 20
[6]; [19]
  Plant response rating, Cocklebur: 0
[7]; [17]
  Plant response rating, Surinam grass: 70
[7]; [18]
  Plant response rating, Surinam grass: 0
[7]; preemergence
  Plant response rating (0 to 100), Surinam grass: 40
[7]; [19]
  Plant response rating, Surinam grass: 0
Nightshade
  Plant response rating (0 to 100), Nightshade: 0
Sunflower
  Plant response rating, Sunflower: 20
[8]
  Plant response rating, Pigweed: 100
[9]; Preemergence, Rate 500 g/ha
  Plant response rating, Crabgrass: 100
[9]; preemergence, Rate 125 g/ha
  Plant response rating, Crabgrass: 30
[10]; Preemergence, Rate 500 g/ha
  Plant response rating, Lambsquarters: 100
[10]; preemergence, Rate 125 g/ha
  Plant response rating, Lambsquarters: 100
[11]
  Plant response rating, Morningglory: 0
[12]; Preemergence, Rate 500 g/ha
  Plant response rating, Foxtail, Giant: 100
[12]; preemergence, Rate 125 g/ha
  Plant response rating, Foxtail, Giant: 100
[13]
  Plant response rating, Velvetleaf: 0
Rice (Oryza saliva)
  Plant response rating, Rice: 60
[14]; Preemergence, Rate 500 g/ha
  Plant response rating, Barnyardgrass: 100
[14]; preemergence, Rate 125 g/ha
  Plant response rating, Barnyardgrass: 80
Corn (Zea mays); Preemergence, Rate 500 g/ha
  Plant response rating, Corn: 0
Corn (Zea mays); preemergence, Rate 125 g/ha
  Plant response rating, Corn: 0
[15]; Preemergence, Rate 500 g/ha
  Plant response rating, Cocklebur: 0
[15]; preemergence, Rate 125 g/ha
  Plant response rating, Cocklebur: 0
[16]; Preemergence, Rate 500 g/ha
  Plant response rating, Surinam grass: 80
[16]; preemergence, Rate 125 g/ha
  Plant response rating, Surinam grass: 70
